Columns and labels:
His-Bcl-2 = target: T1, His-Bcl-2 (Homo sapiens, UniProt P10415); assay: Probing protein-protein interactions for Bcl-2 with the His-Bcl-2-5 complex; format: binding; conditions: complex 200 nM
T1 construct: purchased ProSpec-Tany TechnoGene Ltd. (Ness Ziona, Israel)
Description: Compounds 1-5 (50 μL, 10 μM) in phosphate buffer (4.1 mM, pH=7.3) were dispensed into a 384-well plate and fluorescence intensities were recorded with an excitation wavelength of 330 nm. His-Bcl-2 (final concentration, 200 nM) and Bax BH3 (final concentration, 1.6 μM) were subsequently added to each well and the fluorescence intensity values were recorded again. The emission values correspond to the maximal intensities recorded either at λem=530 nm or at λem=560 nm. Fluorescence was measured in triplicate. Data shown in FIG. 27 is the average of the triplicates and error bars represent standard deviation. Control experiments were performed in a similar manner (FIG. 28).
A mixture of compound 5 (200 nM) and His-Bcl-2 (200 nM) in PBS buffer (4.1 mM, pH=7.3) was dispensed into a 384-well microplate, and the fluorescence emission spectra were recorded. Various proteins (0.8 μM) and Bax BH3 peptide (0.8 μM) were added and the fluorescence emission was again recorded. Fluorescence measurements were performed in triplicate. The emission intensities before the addition of each protein were normalized to 100% (FIG. 27b).

His-CaM(Ca^+2) [1] = target: T2, His-CaM(Ca^+2) (Mus musculus, UniProt P0DP26); assay: Surface plasmon resonance on immobilized His-CaM with Ca2+; format: binding; conditions: SPR, Table 2, CaCl2 0.3 mM; read-out: Dissociation constant
T2 construct: purchased Israel Structural Proteomics Center (Weizmann Institute of Science)
Description: SPR experiments were performed to assess the dissociation constant between His-CaM and the compound 1 in the presence/absence of Ca^2+ ions and other ligands. His-CaM was diluted in 180 μL PBS buffer (4.1 mM, pH=7.3) and 20 μL sodium acetate (1 M, pH=3) to reach a final concentration of 20 μg/mL and then immobilized on a Biacore sensor chip CM5 through EDC/NHS chemistry. Flow cells were activated for 5 min by injecting 50 μL mixture of 50 mM NHS:200 mM EDC. Then 50 μL of His-CaM (20 μg/mL) was injected at a rate of 10 μL/min followed by injection of ethanolamine (1 M) to block the remaining surface-activated groups. Various analytes (Table 1) were injected in different concentrations, ranging from 0.1-2 μM for (20 μL/min, 80 μL injection with a delay of 180 s wash) (Table 1). Between consecutive analyte injections, the surface was regenerated with 2 mM NaOH (20 μL at 10 μL/min) followed by PBS buffer (60 μL at 10 μL/min). Non-derivatized dextran matrix flow cells served as reference cells. […] CaCl2 (0.3 mM) was pre-incubated with the analyte before injections. For the control compound C15 (entry 5), prior to each injection, the chip was washed with 20 μL EDTA (50 mM, 20 μL/min) followed by PBS buffer (20 μL at 20 μL/min) to remove any traces of Ni^2+. The data were globally fitted using BiaEvaluation software 3.2.

His-CaM(Ca^+2) [2] = target: T2, His-CaM(Ca^+2); assay: Screening assay with small molecules and peptide inhibitors using the His-CaM(Ca+2)-1 complex; conditions: test substance 1.6 μM; decrease indicates binding to the CaM surface
Description: A mixture of compound 1 (200 nM), His-CaM (400 nM), and CaCl2 (0.3 mM) in PBS buffer (4.1 mM, pH=7.3) was dispensed into a 384-well microplate, and fluorescence emission spectra were recorded. Then various drugs (1.6 μM) and peptides (1.6 μM) were added and the fluorescence emission was again recorded. Fluorescence measurements were performed in triplicate and the emission intensities before the addition of each drug were normalized to 100% (FIG. 24).

[3] = tested on: E. coli expressing His-OmpC; assay: Decorating bacteria with oligonucleotides, fluorescence microscopy; format: cell-based; conditions: 500 nM with Ni(II)
Description: Transformed bacteria with the different OmpC constructs (OmpC or His-OmpC) were cultured to saturation in LB medium supplemented with 100 μg/ml of ampicillin at 30° C. 40 μl of the pre-cultured cells were then diluted into 4 ml of fresh LB medium supplemented with ampicillin and incubated until the OD600 reaches ˜0.6. Protein expression was then induced by the addition of 0.1% Rhamnose and 20 μM isopropyl-b-D-1-thiogalactopyranoside (IPTG) and cultures were allowed to grow at 30° C. for 18 h.
The bacterial cells (OmpC or His-OmpC) were collected by centrifugation at 6000 g for 4 min. The pellet was washed twice with PBS×1 buffer and resuspended in the same buffer to an OD600 of 0.3. To a 100 μl sample of the bacteria suspension, a preincubated sample of DNA (500 nM) and NiCl2 (2.5 μM) was added, and the cells were incubated at room temperature for 1 h. Then the bacterial sample were washed twice with PBS, resuspended in 100 μl PBS and placed on a glass-bottom dish (P35G-1.5-14-C; MatTek) precoated with poly-1-lysine (Sigma Aldrich) and left to adhere for 1 h. Finally, the wells were washed vigorously with PBS three times and imaged using an Olympus IX51 fluorescent microscope. The samples were imaged using 60× or 100× objective lenses. […]

T1 sequence (P10415 whole entry): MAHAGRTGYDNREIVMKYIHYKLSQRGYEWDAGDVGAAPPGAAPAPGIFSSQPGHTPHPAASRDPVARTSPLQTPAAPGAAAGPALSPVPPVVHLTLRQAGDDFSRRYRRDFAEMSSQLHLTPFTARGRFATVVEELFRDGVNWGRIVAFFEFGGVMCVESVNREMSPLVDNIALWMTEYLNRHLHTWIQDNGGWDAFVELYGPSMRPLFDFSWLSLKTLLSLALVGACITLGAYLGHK

Compound	emission signal of the His-Bcl-2-5 complex after addition of protein or peptide (His-Bcl-2)	Kd (His-CaM(Ca^+2) [1])	fluorescence emission of the His-CaM(Ca+2)-1 complex after addition of drug or peptide (His-CaM(Ca^+2) [2])	fluorescent labeling of bacteria, fluorescence imaging [3]
Mastoparan	did not change the emission signal	–	decrease in the fluorescence emission	–
Cy5-labeled ODN: Cy5-labeled ODN lacking a tri-NTA group, negative control (DNA GCGGCGAGGCAGC; Cy5 label, position not given here)	–	–	–	No fluorescence
Clc1ccc(C(c2ccc(Cl)cc2)n2cc[n+](CC(OCc3ccc(Cl)cc3Cl)c3ccc(Cl)cc3Cl)c2)cc1 (stereo not shown) [calmidazolium]	–	–	decrease in the fluorescence emission	–

Second part, led by results:

emission signal of the His-Bcl-2-5 complex after addition of protein or peptide (His-Bcl-2)	Kd (His-CaM(Ca^+2) [1])	Compound	fluorescence emission of the His-CaM(Ca+2)-1 complex after addition of drug or peptide (His-CaM(Ca^+2) [2])	fluorescent labeling of bacteria, fluorescence imaging [3]
decreased	–	Bax-BH3: amphipathic alpha helical peptide of Bax, Bax BH3 peptide (55-74) wild type (STKKLSECLKRIGDELDSNM)	–	–
did not change the emission signal	8.8 nM	CC[C@H](C)[C@H](NC(=O)[C@H](Cc1ccccc1)NC(=O)[C@H](CC(N)=O)NC(=O)[C@H](CCCCN)NC(=O)[C@H](CCCCN)NC(=O)[C@H](Cc1c[nH]c2ccccc12)NC(=O)[C@H](CCCNC(=N)N)NC(=O)[C@H](CCCNC(=N)N)NC(=O)[C@@H](N)CCCCN)C(=O)N[C@@H](C)C(=O)N[C@H](C(=O)N[C@@H](CO)C(=O)N[C@@H](C)C(=O)N[C@@H](C)C(=O)N[C@@H](CC(N)=O)C(=O)N[C@@H](CCCNC(=N)N)C(=O)N[C@@H](Cc1ccccc1)C(=O)N[C@@H](CCCCN)C(=O)N[C@@H](CCCCN)C(=O)N[C@H](C(=O)N[C@@H](CO)C(=O)N[C@@H](CO)C(=O)N[C@@H](CO)C(=O)NCC(=O)N[C@@H](C)C(=O)N[C@@H](CC(C)C)C(=O)O)[C@@H](C)CC)C(C)C [Compound M13]	–	–

— patent US11639929B2, “Universal histidine-tag binding compounds and methods of use thereof as fluorescent probes and sensors” (YEDA RESEARCH AND DEVELOPMENT CO. LTD., priority 2014, dated 2023)
